Measured values published in article doi:10.1101/2021.10.07.463234v2 (biorxiv, 2021).
Where a name gives a salt, the structure may show the parent alone.

Biological target: SARS-CoV-2 Mac1 (Severe acute respiratory syndrome coronavirus 2, UniProt P0DTD1)
Experiment: biochemical
Conditions: 100 µM; inhibitor

SMILES | %inhibition [%]
O=C(O)c1ccccc1 [Benzoic Acid] | 1.824
CC1(C)S[C@@H]2[C@H](NC(=O)Cc3ccccc3)C(=O)N2[C@H]1C(=O)O [Benzylpenicillin potassium] | 8.229
COc1ccc2cc3[n+](cc2c1OC)CCc1cc2c(cc1-3)OCO2 [Berberine Sulfate] | 0
COc1ccc2cc3[n+](cc2c1OC)CCc1cc2c(cc1-3)OCO2 [Berberine chloride] | 8.063
C[C@H]1C[C@H]2[C@@H]3CCC4=CC(=O)C=C[C@]4(C)[C@@]3(F)[C@@H](O)C[C@]2(C)[C@@]1(O)C(=O)CO [Betamethasone] | 1.437
CC(C)NCC(O)COc1ccc(CCOCC2CC2)cc1 (stereo not drawn) [Betaxolol HCl] | 10.86
CC(C)NCC(O)COc1ccc(CCOCC2CC2)cc1 (stereo not drawn) [Betaxolol] | 0
COc1ccc(NC(=O)c2ccc(C(=N)N(C)C)cc2)c(C(=O)Nc2ccc(Cl)cn2)c1 [Betrixaban maleate] | 3.06
COc1ccc(NC(=O)c2ccc(C(=N)N(C)C)cc2)c(C(=O)Nc2ccc(Cl)cn2)c1 [Betrixaban] | 0
CC(C)(C)NC(=O)N[C@H](C(=O)N1C[C@H]2[C@@H]([C@H]1C(=O)NC(CC1CCC1)C(=O)C(N)=O)C2(C)C)C(C)(C)C (stereo partly drawn) [Boceprevir] | 2.103
Clc1ccc(CCC(Cn2ccnc2)Sc2c(Cl)cccc2Cl)cc1 (stereo not drawn) [Butoconazole nitrate] | 4.358
Clc1ccc(CCC(Cn2ccnc2)Sc2c(Cl)cccc2Cl)cc1 (stereo not drawn) [Butoconazole] | 13.63

Same assay, conditions: read-out: %inhibition

SMILES | inhibition at 100 µM [%]
CCOC(=O)[C@H](CCc1ccccc1)N[C@H]1CCc2ccccc2N(CC(=O)O)C1=O [Benazepril HCl] | 0
O=C(O)COc1nn(Cc2ccccc2)c2ccccc12 [Bendazac] | 3.85
NS(=O)(=O)c1cc2c(cc1C(F)(F)F)NC(Cc1ccccc1)NS2(=O)=O (stereo not drawn) [Bendroflumethiazide] | 0
CC(COc1ccccc1Cc1ccccc1)N1CCCCC1 (stereo not drawn) [Benproperine phosphate] | 0
NC(CO)C(=O)NNCc1ccc(O)c(O)c1O (stereo not drawn) [Benserazide HCl] | 7.42
O=C(O)c1ccc(NC(=O)[C@H](Cc2ccc(O)cc2)NC(=O)c2ccccc2)cc1 [Bentiromide] | 3.94
CCc1oc2ccccc2c1C(=O)c1cc(Br)c(O)c(Br)c1 [Benzbromarone] | 6.57
O=C(Cn1ccnc1[N+](=O)[O-])NCc1ccccc1 [Benznidazole] | 0
CCOC(=O)c1ccc(N)cc1 [Benzocaine hydrochloride] | 0
NS(=O)(=O)c1cc2c(cc1Cl)N=C(CSCc1ccccc1)NS2(=O)=O [Benzthiazide] | 0
CN(C)CCCOc1nn(Cc2ccccc2)c2ccccc12 [Benzydamine HCl] | 4.5
OCc1ccccc1 [Benzyl alcohol] | 0
O=C(OCc1ccccc1)c1ccccc1 [Benzyl benzoate] | 0
O=C(O)CCCN1CCC(O[C@@H](c2ccc(Cl)cc2)c2ccccn2)CC1 [Bepotastine Besilate] | 15
N[C@@H]1CCCCN(c2c(F)cc3c(=O)c(C(=O)O)cn(C4CC4)c3c2Cl)C1 [Besifloxacin HCl] | 0
CC1=C(/C=C/C(C)=C/C=C/C(C)=C/C=C/C=C(C)/C=C/C=C(C)/C=C/C2=C(C)CCCC2(C)C)C(C)(C)CCC1 [Beta Carotene] | 7.3
CNCCc1ccccn1 [Betahistine mesylate] | 0
C[N+](C)(C)CC(=O)O [Betaine] | 0
CCC(=O)OCC(=O)[C@@]1(OC(=O)CC)[C@@H](C)C[C@H]2[C@@H]3CCC4=CC(=O)C=C[C@]4(C)[C@@]3(F)[C@@H](O)C[C@@]21C [Betamethasone Dipropionate] | 5.5
CCCCC(=O)O[C@]1(C(=O)CO)[C@@H](C)C[C@H]2[C@@H]3CCC4=CC(=O)C=C[C@]4(C)[C@@]3(F)[C@@H](O)C[C@@]21C [Betamethasone Valerate] | 0
O=C(O)CCNC(=O)c1ccccc1 [Betamipron] | 7.69
CC(C[N+](C)(C)C)OC(N)=O (stereo not drawn) [Bethanechol chloride] | 0

SMILES | inhibition at 100 µM [%]
COc1ccc(CCNCC(O)COc2cccc(C)c2)cc1OC (stereo not drawn) [Bevantolol hydrochloride] | 17.4
C=C(c1ccc(C(=O)O)cc1)c1cc2c(cc1C)C(C)(C)CCC2(C)C [Bexarotene] | 0
CC(C)(Oc1ccc(CCNC(=O)c2ccc(Cl)cc2)cc1)C(=O)O [Bezafibrate] | 9.85
C[C@@H](O)[C@H]1C(=O)N2C(C(=O)[O-])=C(SC3Cn4cnc[n+]4C3)[C@H](C)[C@H]12 (stereo partly drawn) [Biapenem] | 5.82
CC(O)(CS(=O)(=O)c1ccc(F)cc1)C(=O)Nc1ccc(C#N)c(C(F)(F)F)c1 (stereo not drawn) [Bicalutamide] | 0
c1ccc(-c2ccc(C(c3ccccc3)n3ccnc3)cc2)cc1 (stereo not drawn) [Bifonazole] | 37
CCOCCn1c(C2CCN(CCc3ccc(C(C)(C)C(=O)O)cc3)CC2)nc2ccccc21 [Bilastine] | 0
CCNC(=O)CCC/C=C\C[C@@H]1[C@@H](/C=C/[C@@H](O)CCc2ccccc2)[C@H](O)C[C@@H]1O [Bimatoprost] | 0
Cn1cnc2c(F)c(Nc3ccc(Br)cc3F)c(C(=O)NOCCO)cc21 [Binimetinib (MEK162, ARRY-162, ARRY-438162)] | 24
O=C(O)CCCC[C@@H]1SC[C@@H]2NC(=O)N[C@@H]21 [Biotin (Vitamin B7)] | 0
CC[C@H](NC(=O)[C@H](C)NC)C(=O)N1C[C@@H](O)C[C@H]1Cc1c(-c2[nH]c3cc(F)ccc3c2C[C@@H]2C[C@H](O)CN2C(=O)[C@H](CC)NC(=O)[C@H](C)NC)[nH]c2cc(F)ccc12 [Birinapant] | 3.17
CC(=O)Oc1ccc(C(c2ccc(OC(C)=O)cc2)c2ccccn2)cc1 [Bisacodyl] | 0
CC(C)NCC(O)COc1ccc(COCCOC(C)C)cc1 (stereo not drawn) [Bisoprolol fumarate] | 0
Oc1c(Cl)cc(Cl)cc1Sc1cc(Cl)cc(Cl)c1O [Bithionol] | 0
C[C@H](Oc1ccc(S(C)(=O)=O)cc1C(=O)N1CCN(c2ncc(C(F)(F)F)cc2F)CC1)C(F)(F)F [Bitopertin] | 0
Cc1c(N)nc([C@H](CC(N)=O)NC[C@H](N)C(N)=O)nc1C(=O)N[C@H](C(=O)N[C@H](C)[C@@H](O)[C@H](C)C(=O)N[C@H](C(=O)NCCc1nc(-c2nc(C(=O)NCCC[S+](C)C)cs2)cs1)[C@@H](C)O)[C@@H](O[C@@H]1O[C@@H](CO)[C@@H](O)[C@H](O)[C@@H]1O[C@H]1O[C@H](CO)[C@@H](O)[C@H](OC(N)=O)[C@@H]1O)c1cnc[nH]1 [Bleomycin sulfate] | 0
CC(C)C[C@H](NC(=O)[C@H](Cc1ccccc1)NC(=O)c1cnccn1)B(O)O [Bortezomib (PS-341)] | 54.2
COc1ccccc1Oc1c(NS(=O)(=O)c2ccc(C(C)(C)C)cc2)nc(-c2ncccn2)nc1OCCO [Bosentan Hydrate] | 0.962
COc1cc(Nc2c(C#N)cnc3cc(OCCCN4CCN(C)CC4)c(OC)cc23)c(Cl)cc1Cl [Bosutinib (SKI-606)] | 55.6
O=c1ccc2ccc(OCCCCN3CCN(c4cccc5sccc45)CC3)cc2[nH]1 [Brexpiprazole] | 0
Brc1c(NC2=NCCN2)ccc2nccnc12 [Brimonidine Tartrate] | 19.3
CCN[C@H]1CN(CCCOC)S(=O)(=O)c2sc(S(N)(=O)=O)cc21 [Brinzolamide] | 0

SMILES | inhibition at 100 µM [%]
CCC[C@@H]1CC(=O)N([C@@H](CC)C(N)=O)C1 [Brivaracetam] | 24.6
O=c1[nH]c(=O)n([C@H]2C[C@H](O)[C@@H](CO)O2)cc1/C=C/Br [Brivudine] | 17.8
Nc1c(CC(=O)O)cccc1C(=O)c1ccc(Br)cc1 [Bromfenac Sodium] | 8.6
CN(Cc1cc(Br)cc(Br)c1N)C1CCCCC1 [Bromhexine HCl] | 0
CC(C)C(Br)C(=O)NC(N)=O (stereo not drawn) [Bromisoval] | 0
CN(C)CCC(c1ccc(Br)cc1)c1ccccn1 (stereo not drawn) [Brompheniramine hydrogen maleate] | 9.47
O=[N+]([O-])C(Br)(CO)CO [Bronopol] | 0
Oc1c(Br)cc(Br)c2cccnc12 [Broxyquinoline] | 0
COc1cc2c(cc1OC)[C@@]13CCN4CC5=CCO[C@H]6CC(=O)N2[C@H]1[C@H]6[C@H]5C[C@H]43 [Brucine sulfate salt hydrate] | 0
CCOc1ccc(NC(=O)CC(C)O)cc1 (stereo not drawn) [Bucetin] | 2.67
CCCC1O[C@@H]2C[C@H]3[C@@H]4CCC5=CC(=O)C=C[C@]5(C)[C@H]4[C@@H](O)C[C@]3(C)[C@]2(C(=O)CO)O1 (stereo partly drawn) [Budesonide] | 12.3
CCCCOc1ccc(CC(=O)NO)cc1 [Bufexamac] | 14.1
COc1cc(OC)c(C(=O)CCCN2CCCC2)c(OC)c1 [Buflomedil HCl] | 0
CCCCNc1cc(C(=O)O)cc(S(N)(=O)=O)c1Oc1ccccc1 [Bumetanide] | 25.7
CCCCN1CCCCC1C(=O)Nc1c(C)cccc1C (stereo not drawn) [Bupivacaine HCl] | 0
O=C1CC2(CCCC2)CC(=O)N1CCCCN1CCN(c2ncccn2)CC1 [Buspirone HCl] | 7.05
CS(=O)(=O)OCCCCOS(C)(=O)=O [Busulfan] | 0
CCCCOC(=O)c1ccc(N)cc1 [Butamben] | 2.1
CN(Cc1ccc(C(C)(C)C)cc1)Cc1cccc2ccccc12 [Butenafine HCl] | 0
CCCCOC(=O)c1ccc(O)cc1 [Butylparaben] | 0
CCCC[N+]1(C)[C@@H]2C[C@@H](OC(=O)[C@H](CO)c3ccccc3)C[C@H]1[C@@H]1O[C@@H]12 (stereo partly drawn) [Butylscopolamine Bromide] | 0
NC(=O)c1cc(N2CC2)c([N+](=O)[O-])cc1[N+](=O)[O-] [CB1954] | 5.18
